Test results from patent US6103888A, “Mammalian cationic proteins having lipopolysaccharide binding and anti-coagulant activity” (priority 1999, dated 2000).
Where two headings read alike, the source gives them in different places.

Key:
RAW 264.7 cells = assay: LPS- or IFNγ-induced reactive nitrogen intermediate (RNI) production, Griess nitrite assay; format: cell-based, murine
Procedure: From the sequence of the CAP18 cDNA, it was apparent that the putative N-terminal peptide of CAP18 was in fact an internal fragment of the CAP18 protein. We therefore tried to reconfirm the original protein sequence. Neutrophil-derived heparin bound cationic proteins were prepared as described above and applied to a C18 reverse phase HPLC (FIG. 1). We sequenced the major peaks. Peaks at fractions 14.5 and 15.2 correspond to defensins MCP1 and MCP2 (Territo et al. (1989) J. Clin. Invest. 84:2017-2019), respectively. Fraction 25.8 is macrophage related protein 14 (MRP14) (Odink et al. (1987) Nature 330:80-82). The fraction at 20.3 minutes corresponds to a fragment of CAP18 of approximately 4-5 kD. […] The murine macrophage cell line RAW 264.7 (obtained from ATCC) and thioglycollate-elicited murine peritoneal exudate cells are used to produce RNI. Cells are cultured at 1×10^6 /ml. in RPMI-1640 +2.5% FCS in 24 well plates in the presence or absence of different concentrations of LPS or murine rlFNγ. After 24 hr. incubation at 37° C., the cell free supernatant is collected and tested for the presence of RNI. Accumulation of nitrite in the medium is measured by a calorimetric assay based on the Griess reaction (Green et al. (1982) Anal. Biochem. 126:11) using sodium nitrite as standards. Sample (50 μl) is mixed with 50 μl of Griess reagent (1% sulfanilamide, 0.1% naphthalene diamine dihydrochloride, 2.5% H3 PO4) and after 10 min. at room temperature absorbance is read at 570 nm.

[1] = test system: Salmonella minnesota ReLPS sensitized sheep erythrocytes; assay: LPS hemagglutination assay (MAC); format: binding
Procedure: (§1) For hemagglutination assays, erythrocytes were sensitized with LPS as follows. One ml of 1% erythrocyte suspension (human 0 type, C3H/HeN mouse or sheep) was mixed with 0.2 ml of LPS solution and incubated at 37° C. for 30 min, followed by washing with phosphate buffered saline (PBS), and then the concentration of suspension was adjusted to 1.0%. In the case of S-LPS, the solution was heated at 100° C. for 1 hour before sensitization of erythrocytes. […] Activity of CAP was expressed as a minimum agglutinating concentration (MAC) of CAP. According to the method of Kirikae et al. (1986) Microbiol. Immunol. 30:269-274, 50 μl of 2-fold serial dilution of Re-LPS was added to 50 μl of 1.0% rabbit erythrocyte suspension, and incubated at 37° C. for 3 hour. Minimum agglutinating concentration of Re-LPS was expressed as 1 HA unit.

E. coli 0111:B4 LPS = assay: Inhibition of RNIP-mediated hemagglutination by LPS preparation; format: binding; conditions: Peptide #36-1 16 μg/ml, RNIP (#197) 25 μg/ml preincubated with LPS 37° 30 minutes
Procedure: as §1
(§2) Another series of experiments was performed to determine if the #36-1 and #197 (RNIP) peptides were capable of binding to LPS from various species of Gram-negative bacteria. For these experiments, sheep red blood cells were sensitized with Salmonella minnesota Re-LPS. Peptides #36-1 and #197 (RNIP) were preincubated with various preparations of LPS. Both peptides bind to a diverse group of lipopolysaccharides.
(§3) +Peptide #361 (16 μg/ml) and RNIP (#197) (25 μg/ml) were
(§4) preincubated with each LPS preparation at 37° for 30 minutes, and
(§5) each reaction mixture was added to sheep erythrocytes sensitized with […]

E. coli 0127:B8 LPS = assay: as above; format: binding; conditions: Peptide #36-1 16 μg/ml, RNIP (#197) 25 μg/ml preincubated with LPS 37° 30 minutes
Procedure: as §1, §2, §3, §4, §5

E. coli 055:B5 LPS = assay: as above; format: binding; conditions: Peptide #36-1 16 μg/ml, RNIP (#197) 25 μg/ml preincubated with LPS 37° 30 minutes
Procedure: as §1, §2, §3, §4, §5

E. coli J5 LPS = assay: as above; format: binding; conditions: Peptide #36-1 16 μg/ml, RNIP (#197) 25 μg/ml preincubated with LPS 37° 30 minutes
Procedure: as §1, §2, §3, §4, §5

[2] = test system: Klebsiella pneumoniae LPS; assay: as above; format: binding; conditions: Peptide #36-1 16 μg/ml, RNIP (#197) 25 μg/ml preincubated with LPS 37° 30 minutes
Procedure: as §1, §2, §3, §4, §5

[3] = test system: Pseudomonas aeruginosa F-D Type I LPS; assay: as above; format: binding; conditions: Peptide #36-1 16 μg/ml, RNIP (#197) 25 μg/ml preincubated with LPS 37° 30 minutes
Procedure: as §1, §2, §3, §4, §5

[4] = test system: Salmonella minnesota R595 LPS; assay: as above; format: binding; conditions: Peptide #36-1 16 μg/ml, RNIP (#197) 25 μg/ml preincubated with LPS 37° 30 minutes
Procedure: as §1, §2, §3, §4, §5

[5] = test system: thioglycollate-stimulated murine peritoneal macrophages; assay: LPS-induced tissue factor generation by macrophages (clotting assay); format: cell-based; conditions: peptides 1 μg/ml incubated with S. minnesota smooth LPS 5 minutes; 6 hr
Procedure: Tissue factor assay. Salmonella minnesota smooth LPS was incubated with each peptide (1 μg/ml) for 5 min., then the mixture was added to peritoneal murine macrophages obtained 4 days after thioglycollate stimulation. Cells were cultured for 6 hours prior to assay of tissue factor by clotting assay.
Various concentrations of Salmonella minnesota smooth LPS were incubated with each peptide (197 (RNIP), 36-1, 32-1, and 50-2) at 37° C. for 5 minutes prior to mixing with thioglycollate-stimulated murine peritoneal macrophages. Production of tissue factor after 6 hr. was measured by clotting assay. […] In the absence of LPS no tissue factor is synthesized by these cells.

Human plasma [6] = assay: Prothrombin time (PT); format: biochemical
Procedure: Prothrombin time (PT). Human plasma (100 μl) was incubated with 100 μl of each peptide at 37° C. for 3 min., then 100 μl of tissue factor (250 μg/ml) CaCl2 was added and clotting time was measured.

Human plasma [7] = assay: Partial thromboplastin time (PTT); format: biochemical; conditions: dose dependent
Procedure: Partial thromboplastin time (PTT). Human plasma (100 μl) was incubated with each peptide (100 μl) at 37° C. for 3 min., then 100 μl of CaCl2 containing phospholipid was added and clotting time was measured.

factor Xa = target: T1, factor Xa (Homo sapiens, UniProt P00742); assay: Direct Xa inhibition using Xa substrate S2222; format: biochemical; conditions: concentrations over 10 μg/ml
T1 construct: purchased Sigma Chemical Co., St. Louis, Mo
Description: Clotting method: Human plasma (Ortho plasma control, Ortho Diagnostic Co.). ATPP reagent(Organo-technika, Tokyo, Japan). Standard tissue factor, rabbit brain thromboplastin (Simplastin, ONO Pharmaceutical, Tokyo, Japan). Purified human factor VII, factor X, factor Xa (Sigma Chemical Co., St. Louis, Mo.). Russell Viper venom (RVV) and Echis Carinatus venom (ECV, Sigma Co.).
Synthetic chromogenic substrate method: Substrate for factor Xa, S2222 (Kabi, Bz-Ile-Glu-Arg-pNA) was used. Substrate for factor II (prothrombin), Boc-Val-Pro-Arg-pNA (Sigma Chemical Co.) was used.

factor X = target: T2, factor X (Homo sapiens, UniProt P00742); assay: Factor X activation by tissue factor and factor VII, synthetic substrate S-2222; format: biochemical
T2 construct: purchased Sigma Chemical Co., St. Louis, Mo
Procedure: Factor Xa activity using synthetic substrate. A reaction mixture of factor VII (1 unit/ml, 200 μl), factor X (1 unit/ml, 200 μl), tissue factor (2.5 mg/ml, 50 μl), 25 mM-CaCl2 (50 μl) and 50 μl of several concentration of peptide was incubated at 37° C. for 10 min. To 200 Al of the reaction mixture, 60 μl of 4 mM S-2222, a synthetic substrate for factor Xa, and 340 μl of Tris-HCl buffer, pH 8.2, was added and further incubated for 15 min. The reaction was stopped by adding 60 μl of 50% acetic acid, and OD for p-nitroaniline was read at 405 nm.

prothrombin (factor II) = prothrombin (factor II) (Homo sapiens, UniProt P00734); assay: Prothrombin activation by Echis Carinatus venom (ECV); format: biochemical
Procedure: Prothrombin activation by Echis Carinatus venom (ECV). A reaction mixture of prothrombin (factor II) (0.1 unit/ml, 200 μl), ECV (1 unit/ml, 200 μl), various concentration of peptide (70 μl), 50 μl of 25 mM-CaCl2 and 180 μl of Tris buffer was incubated at 37° C. for 10 min. To 300 μl of the reaction mixture, 60 μl of 4 mM-thrombin substrate and 240 μl of buffer was added and further incubated for 15 min.

coagulation = assay: Anti-coagulant activity of human RNIP (preliminary studies); format: biochemical

T2 sequence (P00742 183-488): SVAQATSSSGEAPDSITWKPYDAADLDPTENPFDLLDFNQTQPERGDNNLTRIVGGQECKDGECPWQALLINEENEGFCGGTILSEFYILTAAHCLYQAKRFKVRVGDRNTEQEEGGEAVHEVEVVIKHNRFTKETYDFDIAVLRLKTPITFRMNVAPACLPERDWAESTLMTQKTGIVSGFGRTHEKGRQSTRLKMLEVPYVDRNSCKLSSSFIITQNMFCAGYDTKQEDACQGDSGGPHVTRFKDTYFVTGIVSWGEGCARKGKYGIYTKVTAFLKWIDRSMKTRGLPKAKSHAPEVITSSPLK
T2 sequence (P00742 41-179): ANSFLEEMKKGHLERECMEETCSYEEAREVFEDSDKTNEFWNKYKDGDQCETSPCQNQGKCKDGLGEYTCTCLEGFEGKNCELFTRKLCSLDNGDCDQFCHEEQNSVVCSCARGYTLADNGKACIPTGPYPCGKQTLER
T1 sequence (P00742 235-488 limits assumed): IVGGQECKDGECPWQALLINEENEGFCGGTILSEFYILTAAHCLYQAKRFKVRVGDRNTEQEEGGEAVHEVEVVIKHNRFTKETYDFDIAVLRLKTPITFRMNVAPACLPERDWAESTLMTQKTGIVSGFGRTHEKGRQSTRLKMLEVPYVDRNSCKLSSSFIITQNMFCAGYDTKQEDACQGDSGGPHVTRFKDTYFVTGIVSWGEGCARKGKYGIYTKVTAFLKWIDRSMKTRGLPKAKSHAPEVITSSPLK
T1 sequence (P00742 41-179 limits assumed): as the sequence (P00742 41-179) above

Substance | concentrations at which peptides are active in the bioassay (RAW 264.7 cells; day-to-day variation in the bioassay) | inhibition of LPS-induced RNI production (in words) (RAW 264.7 cells; macrophages / RAW 264.7 cells) | Hemagglutination [MAC], minimum agglutinating concentration [1] | MIC, minimal inhibitory concentration of LPS (E. coli 0111:B4 LPS) | MIC, minimal inhibitory concentration of LPS (E. coli 0127:B8 LPS) | MIC, minimal inhibitory concentration of LPS (E. coli 055:B5 LPS) | MIC, minimal inhibitory concentration of LPS (E. coli J5 LPS) | MIC, minimal inhibitory concentration of LPS [2] | MIC, minimal inhibitory concentration of LPS [3] | MIC, minimal inhibitory concentration of LPS [4] | inhibition of LPS induced tissue factor (in words) [5] | inhibition of the prothrombin time (PT), in words (Human plasma [6]) | inhibition of the partial thromboplastin time (PTT), in words (Human plasma [7]) | direct Xa inhibition (in words) (factor Xa) | IC50, Tissue factor VII, X to Xa (factor X; synthetic substrate) | IC50 (factor X; text value for both peptides, read-out: IC50, factor X activated by tissue factor and purified factor VII) | inhibition of Echis carinatus venom activation of purified factor II to IIa (in words) (prothrombin (factor II)) | anti-coagulant activity (in words) (coagulation) | anti-coagulant activity (in words) (coagulation; listed as Human RNIP)
36-1: synthetic rabbit RNIP fragment, amino acids 135-166 of SEQ ID NO:4 (GLRKRLRKFRNKIKEKLKKIGQKIQGLLPKLA) [Peptide 36-1] | 10 to 50 nM | active | 3.9 µg/mL | 15.6 µg/mL | 15.6 µg/mL | 15.6 µg/mL | 7.8 µg/mL | 31.3 µg/mL | 3.9 µg/mL | 15.6 µg/mL | inhibition | inhibited | inhibited | No evidence of direct Xa inhibition | 0.3 to 0.7 µg/mL | 40 to 100 nM | inhibited |  | 
human RNIP: synthetic polypeptide comprising amino acids 134 to 170 of SEQ ID NO:2 (LLGDFFRKSKEKIGKEFKRIVQRIKDFLRNLVPRTES) |  |  |  |  |  |  |  |  |  |  |  |  |  |  |  |  |  | lacks significant anti-coagulant activity | free from anti-coagulant activity
